Results reported in patent US20250340563A1, “FUSED PYRIDAZINE DERIVATIVES AS NLRP3 INHIBITORS” (Takeda Pharmaceutical Company Limited, priority 2022, published 2025).
pIC50: −log10 of the molar value.

Each compound was assayed against NLRP3 inflammasome (Homo sapiens, UniProt Q96P20) (assay: IL-1β assay in IFN-γ-differentiated, LPS-primed, ATP-activated THP-1 cells (ELISA)). Details: 50 ng/mL LPS priming, 2.5 mM ATP activation, 2 hours.
Assay type: cell-based
Method: Monocytic THP-1 cells (ATCC: TIB-202) are maintained in accordance with the provider's instructions in RPMI media (Life Technologies, Cat #A10491-01); RPMI is supplemented with 10% heat inactivated fetal bovine serum (Hyclone Cat #SH30396.03). The cells are differentiated into macrophages by the addition of 25 ng/mL IFN-7 (PeproTech, Cat #300-02-100UG) for 24 hours at 37° C./5% CO2. Media is exchanged with fresh media with no FBS, and the cells are treated with 50 ng/mL LPS (priming step) for 24 hours at 37° C./5% CO2 (LPS-EK: Invivogen, Cat #tlrl-peklps). Media is exchanged with fresh media with no FBS. The cells are plated at 40,000 cells per well in 384-well flat-bottom cell culture plates (Costar 3764) containing compounds (added in 1:1000) in a 1:3.16 serial dilution series in DMSO and are incubated for 30 minutes at 37° C./5% CO2. The NLRP3 inflammasome is activated with the addition of 2.5 mM ATP (Sigma Cat #A3377) and the cells are incubated for 2 hours at 37° C./5% CO2. At the end of the incubation period, 40 μL supernatant is removed, and […] are monitored using an ELISA (Human […], R&D systems, Cat #DY201) in accordance with the manufacturer's instructions.
The IC50 values are calculated from a plot of percentage of inhibition versus the inhibitor concentration by a logistics curve fit according to: Y=[Bottom+(Top−Bottom)]/(1+10^[(Log IC50−X)·Hill Slope], where Y is the % inhibition at the inhibitor concentration, X, “Bottom” is the lowest inhibition value, i.e. 0%, “Top” is the maximum inhibition value, i.e. 100%, and the “Hill Slope” describes the slope of the sigmoidal curve between the “Bottom” and “Top” values. The curve fitting was conducted with internally developed software.

NLRP3 inflammasome, sequence (Q96P20 whole entry): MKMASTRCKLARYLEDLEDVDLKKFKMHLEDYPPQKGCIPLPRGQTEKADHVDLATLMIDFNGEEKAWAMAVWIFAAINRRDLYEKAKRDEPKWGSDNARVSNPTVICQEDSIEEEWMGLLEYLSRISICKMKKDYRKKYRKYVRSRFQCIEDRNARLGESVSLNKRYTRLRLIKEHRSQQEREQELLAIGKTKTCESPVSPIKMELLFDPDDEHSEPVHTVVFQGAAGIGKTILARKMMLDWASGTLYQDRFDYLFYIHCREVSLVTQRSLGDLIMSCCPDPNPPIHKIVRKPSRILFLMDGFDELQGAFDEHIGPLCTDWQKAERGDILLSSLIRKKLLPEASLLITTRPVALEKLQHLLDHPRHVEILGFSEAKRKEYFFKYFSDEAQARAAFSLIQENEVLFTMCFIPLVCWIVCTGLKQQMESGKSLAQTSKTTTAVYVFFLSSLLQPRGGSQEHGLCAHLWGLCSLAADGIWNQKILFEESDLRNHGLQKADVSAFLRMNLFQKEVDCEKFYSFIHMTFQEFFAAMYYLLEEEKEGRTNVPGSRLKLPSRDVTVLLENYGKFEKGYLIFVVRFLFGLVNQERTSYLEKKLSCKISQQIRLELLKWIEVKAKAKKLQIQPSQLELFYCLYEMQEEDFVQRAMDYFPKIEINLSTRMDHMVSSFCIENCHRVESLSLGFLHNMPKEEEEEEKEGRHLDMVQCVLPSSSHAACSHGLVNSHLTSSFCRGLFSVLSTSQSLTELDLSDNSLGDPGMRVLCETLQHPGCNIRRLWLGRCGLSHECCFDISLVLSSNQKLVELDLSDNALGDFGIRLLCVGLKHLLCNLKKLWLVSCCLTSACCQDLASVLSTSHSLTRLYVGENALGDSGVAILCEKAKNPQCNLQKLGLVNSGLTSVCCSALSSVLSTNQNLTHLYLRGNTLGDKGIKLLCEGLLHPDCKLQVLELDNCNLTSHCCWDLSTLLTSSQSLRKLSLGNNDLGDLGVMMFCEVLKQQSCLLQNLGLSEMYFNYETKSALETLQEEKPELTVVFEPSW

SMILES	pIC50
F[C@@H]1C[C@@H](Nc2nnc(-c3ccc(Cl)cc3)c3ccccc23)CN(C2CC2)C1 [Example 54, 4-(4-chlorophenyl)-N-((3R,5R)-1-cyclopropyl-5-fluoropiperidin-3-yl)phthalazin-1-amine]	5.92
COc1ccc(-c2nnc(N[C@@H]3C[C@@H](F)CN(C4CC4)C3)c3ccccc23)cc1 [Example 55, N-((3R,5R)-1-cyclopropyl-5-fluoropiperidin-3-yl)-4-(4-methoxyphenyl)phthalazin-1-amine]	6.24
COc1ccc(-c2nnc(N[C@@H]3CCCN(C)C3)c3cnccc23)c(F)c1 [Example 57, (R)-1-(2-fluoro-4-methoxyphenyl)-N-(1-methylpiperidin-3-yl)pyrido[3,4-d]pyridazin-4-amine]	7.68
COc1ccc(-c2nnc(N[C@@H]3CCCN(CCF)C3)c3ccccc23)c(F)c1 [Example 61, (R)-4-(2-fluoro-4-methoxyphenyl)-N-(1-(2-fluoroethyl)piperidin-3-yl)phthalazin-1-amine]	6.87
CN1CCCC(Nc2nnc(-c3ccc(Cl)cc3)c3cnccc23)C1 (centres unmarked) [Example 62, 4-(4-chlorophenyl)-N-(1-methylpiperidin-3-yl)pyrido[3,4-d]pyridazin-1-amine]	5.45
CN1CCCC(Nc2nnc(-c3ccc(Cl)cc3)c3ccncc23)C1 (centres unmarked) [Example 63, 1-(4-chlorophenyl)-N-(1-methylpiperidin-3-yl)pyrido[3,4-d]pyridazin-4-amine]	6.42
CN1CCC[C@H](Nc2nnc(-c3ccc(Cl)cc3)c3ccncc23)C1 [Example 65, (S)-1-(4-chlorophenyl)-N-(1-methylpiperidin-3-yl)pyrido[3,4-d]pyridazin-4-amine]	5.91
CN1CCCC(Nc2nnc(-c3ccc(Cl)cc3F)c3cnccc23)C1 (centres unmarked) [Example 69, 4-(4-chloro-2-fluorophenyl)-N-(1-methylpiperidin-3-yl)pyrido[3,4-d]pyridazin-1-amine]	6.08
CN1CCC[C@H](Nc2nnc(-c3ccc(Cl)cc3F)c3ccncc23)C1 [Example 70, (S)-1-(4-chloro-2-fluorophenyl)-N-(1-methylpiperidin-3-yl)pyrido[3,4-d]pyridazin-4-amine]	5.70
Cc1nccc2c(NC3CCCN(C)C3)nnc(-c3ccc(Cl)cc3)c12 (centres unmarked) [Example 77, 4-(4-chlorophenyl)-5-methyl-N-(1-methylpiperidin-3-yl)pyrido[3,4-d]pyridazin-1-amine]	5.82
COc1ccc(-c2nnc(N[C@@H]3CCCN(C)C3)c3c(C)nccc23)c(O)c1 [Example 78, (R)-5-methoxy-2-(5-methyl-4-((1-methylpiperidin-3-yl)amino)pyrido[3,4-d]pyridazin-1-yl)phenol]	6.74
CN1CCC[C@@H](Nc2nnc(-c3ccc(C(F)(F)F)cc3O)c3ccncc23)C1 [Example 90, (R)-2-(4-((1-methylpiperidin-3-yl)amino)pyrido[3,4-d]pyridazin-1-yl)-5-(trifluoromethyl)phenol]	8.52
CN1CCC[C@@H](Nc2nnc(-c3ccccc3C(F)F)c3ccncc23)C1 [Example 91, (R)-1-(2-(difluoromethyl)phenyl)-N-(1-methylpiperidin-3-yl)pyrido[3,4-d]pyridazin-4-amine]	6.51
CN1CCC[C@@H](Nc2nnc(-c3ccc(OC(F)F)cc3F)c3ccncc23)C1 [Example 92, (R)-1-(4-(difluoromethoxy)-2-fluorophenyl)-N-(1-methylpiperidin-3-yl)pyrido[3,4-d]pyridazin-4-amine]	7.22
C[C@]1(O)C[C@@H](Nc2nnc(-c3ccc(Cl)cc3O)c3cnccc23)C1 [Example 94, cis-5-chloro-2-(1-((3-hydroxy-3-methylcyclobutyl)amino)pyrido[3,4-d]pyridazin-4-yl)phenol]	6.99
CN1CCc2c(NC3CCCN(C)C3)nnc(-c3ccc(Cl)cc3)c2C1 (centres unmarked) [Example 99, 4-(4-chlorophenyl)-6-methyl-N-(1-methylpiperidin-3-yl)-5,6,7,8-tetrahydropyrido[3,4-d]pyridazin-1-amine]	5.69
CCN1CCc2c(NC3CCCN(C)C3)nnc(-c3ccc(Cl)cc3)c2C1 (centres unmarked) [Example 100, 4-(4-chlorophenyl)-6-ethyl-N-(1-methylpiperidin-3-yl)-5,6,7,8-tetrahydropyrido[3,4-d]pyridazin-1-amine]	5.57
CN1CCc2c(-c3ccc(Cl)cc3)nnc(NC3CCCN(C)C3)c2C1 (centres unmarked) [Example 101, 1-(4-chlorophenyl)-6-methyl-N-(1-methylpiperidin-3-yl)-5,6,7,8-tetrahydropyrido[3,4-d]pyridazin-4-amine]	6.09

SMILES	pIC50
CCN1CCc2c(-c3ccc(Cl)cc3)nnc(NC3CCCN(C)C3)c2C1 (centres unmarked) [Example 102, 1-(4-chlorophenyl)-6-ethyl-N-(1-methylpiperidin-3-yl)-5,6,7,8-tetrahydropyrido[3,4-d]pyridazin-4-amine]	6.16
CN1CCCC(Nc2nnc(-c3ccc(Cl)cc3)c3c2CN(C2CC2)CC3)C1 (centres unmarked) [Example 103, 1-(4-chlorophenyl)-6-cyclopropyl-N-(1-methylpiperidin-3-yl)-5,6,7,8-tetrahydropyrido[3,4-d]pyridazin-4-amine]	5.44
CC(=O)N1CCc2c(NC3CCCN(C)C3)nnc(-c3ccc(Cl)cc3)c2C1 (centres unmarked) [Example 104, 1-(4-(4-chlorophenyl)-1-((1-methylpiperidin-3-yl)amino)-7,8-dihydropyrido[3,4-d]pyridazin-6(5H)-yl)ethan-1-one]	5.78
CC(=O)N1CCc2c(-c3ccc(Cl)cc3)nnc(NC3CCCN(C)C3)c2C1 (centres unmarked) [Example 105, 1-(1-(4-chlorophenyl)-4-((1-methylpiperidin-3-yl)amino)-7,8-dihydropyrido[3,4-d]pyridazin-6(5H)-yl)ethan-1-one]	6.02
CN1CCCC(Nc2nnc(-c3ccc(Cl)cc3)c3c2CCN(S(C)(=O)=O)C3)C1 (centres unmarked) [Example 106, 4-(4-chlorophenyl)-N-(1-methylpiperidin-3-yl)-6-(methylsulfonyl)-5,6,7,8-tetrahydropyrido[3,4-d]pyridazin-1-amine]	5.48
CN1CCCC(Nc2nnc(-c3ccc(Cl)cc3)c3c2CN(S(C)(=O)=O)CC3)C1 (centres unmarked) [Example 107, 1-(4-chlorophenyl)-N-(1-methylpiperidin-3-yl)-6-(methylsulfonyl)-5,6,7,8-tetrahydropyrido[3,4-d]pyridazin-4-amine]	5.75
CN1CC(Nc2nnc(-c3ccc(Cl)cc3)c3ccccc23)CC(F)(F)C1 (centres unmarked) [Example 108, 4-(4-chlorophenyl)-N-(5,5-difluoro-1-methylpiperidin-3-yl)phthalazin-1-amine]	5.50
CN1CCC(Nc2nnc(-c3ccc(Cl)cc3)c3ccccc23)C1=O (centres unmarked) [Example 109, 3-((4-(4-chlorophenyl)phthalazin-1-yl)amino)-1-methylpyrrolidin-2-one]	5.31
CC(=O)N1CCCC(Nc2nnc(-c3ccc(Cl)cc3)c3ccccc23)C1 (centres unmarked) [Example 110, 1-(3-((4-(4-chlorophenyl)phthalazin-1-yl)amino)piperidin-1-yl)ethan-1-one]	5.35
CN1CCCC(N(C)c2nnc(-c3ccc(Cl)cc3)c3ccccc23)C1 (centres unmarked) [Example 112, 4-(4-chlorophenyl)-N-methyl-N-(1-methylpiperidin-3-yl)phthalazin-1-amine]	5.37
O[C@]1(C(F)(F)F)CCC[C@H](Nc2nnc(-c3ccc(Cl)cc3)c3ccccc23)C1 [Example 115, (1R,3S)-3-((4-(4-chlorophenyl)phthalazin-1-yl)amino)-1-(trifluoromethyl)cyclohexan-1-ol]	5.66
O[C@]1(C(F)(F)F)CCC[C@@H](Nc2nnc(-c3ccc(Cl)cc3)c3ccccc23)C1 [Example 116, (1R,3R)-3-((4-(4-chlorophenyl)phthalazin-1-yl)amino)-1-(trifluoromethyl)cyclohexan-1-ol]	6.04
O[C@]1(C(F)(F)F)C[C@@H](Nc2nnc(-c3ccc(Cl)cc3)c3ccccc23)C1 [Example 117, trans-3-((4-(4-chlorophenyl)phthalazin-1-yl)amino)-1-(trifluoromethyl)cyclobutan-1-ol]	6.20
C[C@]1(O)C[C@H](Nc2nnc(-c3ccc(Cl)cc3)c3ccccc23)C1 [Example 119, trans-3-((4-(4-chlorophenyl)phthalazin-1-yl)amino)-1-methylcyclobutan-1-ol]	5.56
O[C@]1(C(F)(F)F)C[C@H](Nc2nnc(-c3ccc(Cl)cc3)c3ccccc23)C1 [Example 120, cis-3-((4-(4-chlorophenyl)phthalazin-1-yl)amino)-1-(trifluoromethyl)cyclobutan-1-ol]	6.03
C[C@]1(O)CC[C@H](Nc2nnc(-c3ccc(Cl)cc3)c3ccccc23)CC1 [Example 121, trans-4-((4-(4-chlorophenyl)phthalazin-1-yl)amino)-1-methylcyclohexan-1-ol]	5.40
CCN1CCCC1CNc1nnc(-c2ccc(OC)cc2)c2ccccc12 (centres unmarked) [Example 125, N-((1-ethylpyrrolidin-2-yl)methyl)-4-(4-methoxyphenyl)phthalazin-1-amine]	5.56
